Series [1] in a line: Serum binding determination by ultrafiltration and HPLC. The class given is in vitro ADME. To be noted: % of compound bound to serum as determined by HPLC. The method, then: The more accurate measurement of binding of selected cephalosporin compounds was performed using HPLC as described below. […] Serum is placed in a shaking water bath preheated to 37 ± 2 °C for 5 to 10 minutes to heat serum to 37 °C. Serum pH is measured and recorded, while serum is 37 °C using pH paper. Measurements are taken twice, 3 minutes apart. If the pH is not 7.4 ± 0.4 then the pH is adjusted by blowing 5% CO2/95% O2 over the serum. After blowing for several minutes, serum is heated to 37 °C and measurements are taken twice, 3 minutes apart using pH paper to determine the pH. Store at 4 °C. The serum is stable for 7 days. Always check the pH before each use. • 2. Before any centrifugation, the centrifuge temperature must be adjusted to 25 ± 2 °C. Preheat the centrifuge by spinning for 45 minutes at the same speed to be used in the assay (1900 g) with two tubes of water in the rotor and the temperature set to 25 °C. When the centrifuge stops immediately check the temperature of the tubes of water with a calibrated thermometer. The temperature of the tubes of water must be 25 ± 2 °C. […] Continue spinning and measuring the temperature and adjusting the setting until the temperature is 25 ± 2 °C. • 3. Prepare blank ultrafiltrate by pipetting blank pH 7.4 serum into an Amicon Centrifree Micropartition devices, centrifuge: fixed angle rotor, 1900 g, 25 °C for 20 minutes. Heat ultrafiltrate in a shaking water bath preheated to 37 °C. Measure ultrafiltrate pH and adjust to the pH of the serum (7.4 ± 0.2). • 4. Pipette 190 ul of blank ultrafiltrate into a set of labeled 1.7 mL polypropylene microfuge tubes for 3 of each level. Pipette 10 µL of the appropriate standard stock 50, 200, 1000 µg/mL to make standards 2.5, 10, and 50 µg/mL respectively. Vortex each tube well. One set of the standard samples are mixed 1:1 with 0.2 M acetic acid and injected onto the HPLC (MSTD). These samples are the membrane standards and will be used to compare to the other standards. Pipette 190 ul of ultrafiltrate and spike with 10 ul of whatever solution (e.g. water) the standards are prepared in to make the zero standard. • 5. Pipette 475 µL of blank heated pH 7.4 serum into a set of labeled 1.7 mL polypropylene microfuge tubes for 2 of each (Serum A and Serum B). Pipette 25 µL of the 1000 µg/mL standard stock into each tube, vortex each tube well to make serum standard 50 µg/mL. Remove 100 µL of serum and deproteinate with 200 µL 4% TCA while vortexing to make serum time 0 (serum 50, T0). Place serum tubes in a shaking water bath at 37 °C for 10 minutes. Pipet 100 µL of serum out and deproteinate with 200 µL 4% TCA, to make serum time 10 min (serum 50, T10). Pipet 200 ul serum standard 50 µg/mL into an ultrafiltration device, which is not treated with TCA, to determine free drug in samples (Rat Serum 50). • 6. Transfer serum and standard samples to labeled Amicon Centrifree Micropartition filters, and centrifuge: 1900 g, 25 °C for 10 minutes. The extracted serum samples (T0 and T 10) are spun down and supernatant is loaded into HPLC vials. • 7. 100 µL of ultrafiltrate sample and 100 µL of 0.2 M acetic acid were mixed together to stabilize the compound in ultrafiltrate. • 8. Transfer entire stabilized ultrafiltrate solution to a labeled autoinjector HPLC vial cap with Teflon septa, and inject on HPLC.
Peak height or area is used in a weighted linear regression.

The nature of series [2]: In vitro stability of compounds in rat serum. To be noted: for degraded at 1 h: % loss after 60 min exposure to rat serum as determined by HPLC, 37 °C; for stability in rat serum (statement in words): compared with other 7-acylamino-3-heteroarylthio-3-cephem carboxylic acids. In kind it is in vitro ADME. The method, then: In general, compounds from the class of 7-acylamino-3-heteroarylthio-3-cephem carboxylic acids have higher chemical reactivity and lower stability towards chemical or enzymatic decomposition than most typical cephalosporins. […] Results shown in Table 2 represent percentage loss of the initial amount of cephalosporin compound upon 60 min incubation in rat serum.
Procedure for measuring degree of degradation of cephalosporin compounds in rat serum was as follows:
Fresh control rat serum (heparinized and stored frozen) is preincubated at 37 °C for 15 min in a shaking water bath. pH is measured using test strips. 25 µL of a 2 mg/mL solution cephalosporin compound (in water) of is then added to each matrix to make 1000 µL. Solutions were incubated at 37 °C. 100ul of solution was taken out at time = 0, 15, 30, and 60 min post dose and added 200 µL 4% trichloroacetic acid, vortexed, and centrifuged for 10 min at 14,000 rpm in an Eppendorfmicrocentrifuge. 25 µL of each supernatant was injected onto HPLC. Experiment was repeated using 25 µL of a 0.2 mg/mL cephalosporin compound. Degradation is measured as the percentage of HPLC peak area at time t relative to peak area at time 0.
HPLC conditions: Beckman Ultrasphere C18 column. 5u. 4.6mm x 25cm. 1 mL/min of 95% 0.1 M ammonium acetate, pH 6, 5% ACN going to 75% buffer/organic over 20min. UV monitored at 254 and 280 nm.

In general, fraction unbound refers to the share of the substance not bound to proteins or other matrix. A high value points to weak binding. `NCCSCc1ncccc1SC1=C(C(=O)O)N2C(=O)[C@@H](NC(=O)/C(=N\O)c3nc(N)sc3Cl)[C@H]2SC1` [Cmpd 1, (7R)-7-[(Z)-2-(2-amino-5-chlorothiazol-4-yl)-2-(hydroxyimino)acetamido]-3-[2-(2-aminoethylthiomethyl)pyrid-3-ylthio]-3-cephem-4-carboxylic acid] had a free fraction (fraction unbound) in series [1] (rat serum) of 0.15. For the same compound, in series [2], the degraded at 1 h worked out at 9% and the “stability in rat serum (statement in words)” value (“stability in rat serum” below) is on record as “improved stability”.
As to `NCCSCc1ncccc1SC1=C(C(=O)O)N2C(=O)[C@@H](NC(=O)/C(=N\O)c3nsc(N)n3)[C@H]2SC1` [Cmpd 2, (7R)-7-[(Z)-2-(5-amino-1,2,4-thiadiazol-3-yl)-2-(hydroxyimino)acetamido]-3-[2-(2-aminoethylthiomethyl)pyrid-3-ylthio]-3-cephem-4-carboxylic acid], the fraction unbound in series [1] (rat serum) was 0.26. Besides, the free fraction (fraction unbound) in series [1] (rhesus monkey) is 0.19. In addition, in series [2], the degraded at 1 h came out at 2% and the “stability in rat serum” value was “improved stability”.
Consider `N=C(N)NCCSCc1ncccc1SC1=C(C(=O)O)N2C(=O)[C@@H](NC(=O)/C(=N\O)c3nsc(N)n3)[C@H]2SC1` [Cmpd 2-R, (7R)-7-[(Z)-2-(5-amino-1,2,4-thiadiazol-3-yl)-2-(hydroxyimino)acetamido]-3-[2-(2-guanidinoethylthiomethyl)pyrid-3-ylthio]-3-cephem-4-carboxylic acid], for which, in series [2], the degraded at 1 h stood at 10% and the “stability in rat serum” value is “improved stability”.
In series [1] (rat serum), `N=C(N)NCCSCc1ncccc1SC1=C(C(=O)O)N2C(=O)[C@@H](NC(=O)/C(=N\O)c3nc(N)sc3Cl)[C@H]2SC1` [Cmpd 2-S, (7R)-7-[(Z)-2-(2-amino-5-chlorothiazol-4-yl)-2-(hydroxyimino)acetamido]-3-[2-(2-guanidinoethylthiomethyl)pyrid-3-ylthio]-3-cephem-4-carboxylic acid] had an unbound share (fraction unbound) of 0.24. Besides, in series [1] (rhesus monkey), the fraction unbound was 0.12. Further, in series [2], the degraded at 1 h came to 38% and the “stability in rat serum” value is on record as “improved stability”.
`NCCSCc1ccncc1SC1=C(C(=O)O)N2C(=O)[C@@H](NC(=O)/C(=N\O)c3nc(N)sc3Cl)[C@H]2SC1` [Cmpd 3, (7R)-7-[(Z)-2-(2-amino-5-chlorothiazol-4-yl)-2-(hydroxyimino)acetamido]-3-[4-(2-aminoethylthiomethyl)pyrid-3-ylthio]-3-cephem-4-carboxylic acid] had a fraction unbound in series [1] (rat serum) of 0.03. Moreover, the unbound share (fraction unbound) in series [1] (rhesus monkey) is 0.03. In series [2], the degraded at 1 h is 3% and the “stability in rat serum” value is “improved stability”.

The values are drawn from patent EP1222194B1, “7-ACYLAMINO-3-HETEROARYLTHIO-3-CEPHEM CARBOXYLIC ACID ANTIBIOTICS AND PRODRUGS THEREOF” (priority 1999, dated 2001).
